Measured values as given in patent US11045457B2, “Piperidinyl-3-(aryloxy)propanamides and propanoates” (priority 2018, dated 2021).

The molecules below were run against SSTR4 (Homo sapiens (Human), UniProt P31391) (assay: Inhibition of forskolin stimulated cAMP in CHO-K1 cells overexpressing SSTR4).
SSTR4, sequence (P31391 whole entry): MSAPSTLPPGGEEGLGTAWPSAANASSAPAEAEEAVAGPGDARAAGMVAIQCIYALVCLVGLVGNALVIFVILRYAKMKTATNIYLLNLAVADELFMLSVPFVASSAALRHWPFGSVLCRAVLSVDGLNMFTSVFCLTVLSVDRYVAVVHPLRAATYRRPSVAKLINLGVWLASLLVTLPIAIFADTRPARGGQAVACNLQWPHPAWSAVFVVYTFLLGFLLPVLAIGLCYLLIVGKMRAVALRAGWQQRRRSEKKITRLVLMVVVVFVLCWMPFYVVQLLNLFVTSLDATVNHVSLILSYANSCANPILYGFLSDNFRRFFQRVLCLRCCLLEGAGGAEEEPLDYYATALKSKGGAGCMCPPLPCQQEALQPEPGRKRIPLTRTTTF
Assay type: cell-based
Method: Inhibition of Forskolin Stimulated cAMP in Cells Overexpressing SSTR4
This cell-based assay measures the ability of compounds to inhibit forskolin stimulated cAMP in CHO-K1 cells overexpressing SSTR4. CHO-K1 cells overexpressing SSTR4 (CHO-SSTR4) are purchased from DiscoveRx (product code 95-0059C2). The CHO-SSTR4 cells are maintained in F12K media with 10% Fetal Bovine Serum (Hyclone), 1% Pen/Strep (Life Technologies), and 800 μg/mL G418 (Life Technologies). […] The next day, the culture media is removed from the cells and the cells are washed (added then removed) with Kreb's Ringer Buffer (ZenBio, KRB-1000 mL). […] The cells are incubated in […] for 30 minutes at room temperature. Cellular cAMP levels are detected with a HTRF LANCE Ultra cAMP kit (Perkin Elmer, catalog number TRF0264).
The assay is performed in accordance with the manufacturer's instructions. Five μL of diluted Eu-W8044 labeled streptavidin (dilution: 1:50 in cAMP Detection Buffer) is added to each well. Then 5 μL of diluted biotin cAMP (dilution: 1:150 in cAMP Detection Buffer) is added to each well. The plates are covered and allowed to incubate for 60 minutes at room temperature on a shaker. […] The pEC50 values are generated using Activity Base for Screening Data Management.
For CN1CCC(NC(=O)C(C)(C)COc2cccc3c2CCC3)CC1 [Example 79, 3-((2,3-dihydro-1H-inden-4-yl)oxy)-2,2-dimethyl-N-(1-methylpiperidin-4-yl)propanamide], the “SSTR4 Activity pEC50” value was 7.0.
In the case of CN1CCC(NC(=O)C(C)(C)COc2nccnc2C2CC2)CC1 [Example 80, 3-((3-cyclopropylpyrazin-2-yl)oxy)-2,2-dimethyl-N-(1-methylpiperidin-4-yl)propanamide], the “SSTR4 Activity pEC50” value is reported as 6.1.
CN1CCC(NC(=O)C2(COc3ccccc3Cl)CC2)CC1 [Example 81, 1-((2-chlorophenoxy)methyl)-N-(1-methylpiperidin-4-yl)cyclopropane-1-carboxamide] was tested, and the “SSTR4 Activity pEC50” value was 6.3.
In the case of Cc1cnc(OCC(C)(C)C(=O)NC2CCN(C)CC2)c(Cl)c1 [Example 82, 3-((3-chloro-5-methylpyridin-2-yl)oxy)-2,2-dimethyl-N-(1-methylpiperidin-4-yl)propanamide], the “SSTR4 Activity pEC50” value is reported as 7.0.
With Cc1ccc(C)c(OCC(C)(C)C(=O)NC2CCN(C)CC2)n1 [Example 83, 3-((3,6-dimethylpyridin-2-yl)oxy)-2,2-dimethyl-N-(1-methylpiperidin-4-yl)propanamide] the “SSTR4 Activity pEC50” value was 7.3.
CCc1cccnc1OCC(C)(C)C(=O)NC1CCN(C)CC1 [Example 85, 3-((3-ethylpyridin-2-yl)oxy)-2,2-dimethyl-N-(1-methylpiperidin-4-yl)propanamide] was tested, and the “SSTR4 Activity pEC50” value was 7.1.
In the case of CCc1cccnc1OCC(C)(C)C(=O)N[C@@H]1CCN(C)C1 [Example 86, (R)-3-((3-ethylpyridin-2-yl)oxy)-2,2-dimethyl-N-(1-methylpyrrolidin-3-yl)propanamide], the “SSTR4 Activity pEC50” value is reported as 7.3.
For CCc1nccnc1OCC(C)(C)C(=O)NC1CCN(C)CC1 [Example 87, 3-((3-ethylpyrazin-2-yl)oxy)-2,2-dimethyl-N-(1-methylpiperidin-4-yl)propanamide], the “SSTR4 Activity pEC50” value was 6.4.
With Cc1ccnc(OCC(C)(C)C(=O)NC2CCN(C)CC2)c1C [Example 88, 3-((3,4-dimethylpyridin-2-yl)oxy)-2,2-dimethyl-N-(1-methylpiperidin-4-yl)propanamide] the “SSTR4 Activity pEC50” value was 6.6.
In the case of CN1CCC(NC(=O)C2(COc3ncccc3C3CC3)CCC2)CC1 [Example 89, 1-(((3-cyclopropylpyridin-2-yl)oxy)methyl)-N-(1-methylpiperidin-4-yl)cyclobutane-1-carboxamide], the “SSTR4 Activity pEC50” value is reported as 6.8.
For CN1CCC(NC(=O)C(C)(C)COc2ncccc2C(F)F)CC1 [Example 90, 3-((3-(difluoromethyl)pyridin-2-yl)oxy)-2,2-dimethyl-N-(1-methylpiperidin-4-yl)propanamide], the “SSTR4 Activity pEC50” value was 6.6.
For Cc1cc(C(F)(F)F)cnc1OCC(C)(C)C(=O)NC1CCN(C)CC1 [Example 91, 2,2-dimethyl-3-((3-methyl-5-(trifluoromethyl)pyridin-2-yl)oxy)-N-(1-methylpiperidin-4-yl)propanamide], the “SSTR4 Activity pEC50” value was 6.0.
For CCc1ccccc1OCC(C)(C)C(=O)NC1CN(C)CC1c1ccccc1 (stereo not drawn) [Example 97, 3-(2-ethylphenoxy)-2,2-dimethyl-N-(1-methyl-4-phenylpyrrolidin-3-yl)propanamide], the “SSTR4 Activity pEC50” value was 7.9.
With CN1CCC(NC(=O)C(C)(C)COc2nnc(Cl)cc2C(F)(F)F)CC1 [Example 98, 3-((6-chloro-4-(trifluoromethyl)pyridazin-3-yl)oxy)-2,2-dimethyl-N-(1-methylpiperidin-4-yl)propanamide] the “SSTR4 Activity pEC50” value was 6.2.
With CN1CCC(NC(=O)C(C)(C)COc2nccc3occc23)CC1 [Example 99, 3-(furo[3,2-c]pyridin-4-yloxy)-2,2-dimethyl-N-(1-methylpiperidin-4-yl)propanamide] the “SSTR4 Activity pEC50” value was 7.1.
In the case of CN1CCC(NC(=O)C(C)(C)COc2ncc(Br)cc2C(F)(F)F)CC1 [Example 100, 3-((5-bromo-3-(trifluoromethyl)pyridin-2-yl)oxy)-2,2-dimethyl-N-(1-methylpiperidin-4-yl)propanamide], the “SSTR4 Activity pEC50” value is reported as 7.2.
For Cc1cnc(OCC(C)(C)C(=O)NC2CCN(C)CC2)c(C(F)(F)F)c1 [Example 101, 2,2-dimethyl-3-((5-methyl-3-(trifluoromethyl)pyridin-2-yl)oxy)-N-(1-methylpiperidin-4-yl)propanamide], the “SSTR4 Activity pEC50” value was 7.3.
In the case of CN1CCC(NC(=O)C(C)(C)COc2ncccc2C(F)(F)F)C(C)(C)C1 (stereo not drawn) [Example 112, 2,2-dimethyl-3-((3-(trifluoromethyl)pyridin-2-yl)oxy)-N-(1,3,3-trimethylpiperidin-4-yl)propanamide], the “SSTR4 Activity pEC50” value is reported as 6.1.
For CN1CCC(NC(=O)C(C)(C)COc2ncccc2C(F)(F)F)C(F)C1 (stereo not drawn) [Example 113, N-(3-fluoro-1-methylpiperidin-4-yl)-2,2-dimethyl-3-((3-(trifluoromethyl)pyridin-2-yl)oxy)propanamide], the “SSTR4 Activity pEC50” value was 5.9.
CN1CCC(NC(=O)C(C)(C)COc2ncccc2C(F)(F)F)C(F)(F)C1 (stereo not drawn) [Example 118, N-(3,3-difluoro-1-methylpiperidin-4-yl)-2,2-dimethyl-3-((3-(trifluoromethyl)pyridin-2-yl)oxy)propanamide] was tested, and the “SSTR4 Activity pEC50” value was 6.2.
CN1CCC(NC(=O)C(C)(C)COc2ncccc2C(F)(F)F)C(Cl)C1 (stereo not drawn) [Example 120, N-(3-chloro-1-methylpiperidin-4-yl)-2,2-dimethyl-3-((3-(trifluoromethyl)pyridin-2-yl)oxy)propanamide] was tested, and the “SSTR4 Activity pEC50” value was 5.9.
Cc1cnc(OCC(C)(C)C(=O)N[C@H]2CCN(C)C[C@@H]2F)c(C)c1 [Example 122, 3-((3,5-dimethylpyridin-2-yl)oxy)-N-((3S,4S)-3-fluoro-1-methylpiperidin-4-yl)-2,2-dimethylpropanamide] was tested, and the “SSTR4 Activity pEC50” value was 6.6.
For CC(C)(COc1ncccc1C(F)(F)F)C(=O)NC1CNCC1(F)F (stereo not drawn) [Example 131, N-(4,4-difluoropyrrolidin-3-yl)-2,2-dimethyl-3-((3-(trifluoromethyl)pyridin-2-yl)oxy)propanamide], the “SSTR4 Activity pEC50” value was 6.1.
CN1CCC(NC(=O)C(C)(C)COc2ncccc2C(F)(F)F)CC1(C)C (stereo not drawn) [Example 132, 2,2-dimethyl-3-((3-(trifluoromethyl)pyridin-2-yl)oxy)-N-(1,2,2-trimethylpiperidin-4-yl)propanamide] was tested, and the “SSTR4 Activity pEC50” value was 7.1.
CCC1CC(NC(=O)C(C)(C)COc2ncccc2C(F)(F)F)CCN1C (stereo not drawn) [Example 137, N-(2-ethyl-1-methylpiperidin-4-yl)-2,2-dimethyl-3-((3-(trifluoromethyl)pyridin-2-yl)oxy)propanamide] was tested, and the “SSTR4 Activity pEC50” value was 6.7.
With Cc1cccnc1OCC(C)(C)C(=O)N[C@@H]1CCN(C)C[C@H]1C [Example 142, N-((3R,4R)-1,3-dimethylpiperidin-4-yl)-2,2-dimethyl-3-((3-methylpyridin-2-yl)oxy)propanamide] the “SSTR4 Activity pEC50” value was 6.1.
For CC[C@H]1CN(C)CC[C@@H]1NC(=O)C(C)(C)COc1ncccc1C(F)(F)F [Example 145, N-((3S,4S)-3-ethyl-1-methylpiperidin-4-yl)-2,2-dimethyl-3-((3-(trifluoromethyl)pyridin-2-yl)oxy)propanamide], the “SSTR4 Activity pEC50” value was 6.2.
